Test system: not listed separately
Assay: pH measurement of acidifiers with a glass electrode
Format: physicochemical
Conditions: after 1 min
Source text: Apparent pH is the pH reading measured by a glass pH electrode. The preferred acidifiers are 37% HCl, 10% HCl, sulfuric acid, o-phosphoric acid, nitric acid, acetic acid, L (+)-lactic acid, salicylic acid, and glycolic acid. The particularly preferred acidifiers are 37% HCl and 10% HCl. If the total weight of the acidified composition is 100 parts, the acidifier should be about 0.05 to about 50% w/w (w/w=weight/weight), preferably, from about 0.1% to about 10%, more preferably form about 0.5% to about 5%.
`CC(=O)O` [Acetic acid] showed a pH reading of -0.19 to -0.28.
For `O=C(O)CO` [Glycolic Acid], the pH reading was 0.43.
`C[C@H](O)C(=O)O` [L(+)-lactic acid] gave a pH reading of 0.31.
With `O=C(O)c1ccccc1O` [Salicylic acid] the pH reading was 2.92.

Test system: onychomycosis
Assay: not given
Conditions: after nail removal; cited from earlier work
In the case of `CC(=O)N1CCN(c2ccc(OCC3COC(Cn4ccnc4)(c4ccc(Cl)cc4Cl)O3)cc2)CC1` (stereo not drawn) [ketoconazole], the “Effectiveness in topically treating onychomycosis” value is listed as “effective”.
In the case of `Clc1ccc(COC(Cn2ccnc2)c2ccc(Cl)cc2Cl)c(Cl)c1` (stereo not drawn) [miconazole], the “Effectiveness in topically treating onychomycosis” value is listed as “effective”.

Reference: US6231875A, “Acidified composition for topical treatment of nail and skin conditions” (Johnson & Johnson Consumer Companies, Inc., priority 1999, dated 2001)
